Test results from PMC9673804, “Design, synthesis and antitumor evaluation of novel pyrazolo[3,4-d]pyrimidines incorporating different amino acid conjugates as potential DHFR inhibitors” (Journal of Enzyme Inhibition and Medicinal Chemistry, 2022).
Several values for one entry are separate records, joined by “and”; a condition that tells them apart may be missing. Equal values may be shown once.

Assays:
[1] = tested on: Bax; assay: Western blot of Bax expression in MCF-7; type: cell-based, human
Protocol: (§1) The effect of compound 7f on the expression of DHFR, Casp3, Bax, and Bcl-2 proteins in MCF-7 cancer cells was evaluated by western blotting as previously performed. The cancer cells treated or untreated were collected were harvested and blotted on SDS-polyacrylamide gel and separated by Cleaver electrophoresis unit (Cleaver, UK), transferred onto polyvinylidene fluoride (PVDF) membranes (Millipore, USA) for 30 min using a Semi-dry Electroblotter (Biorad, USA) at 2.5 A and 25 V for 30 min. […] After washing, the chemiluminescent Western ECL substrate (Perkin Elmer, Waltham, MA, USA) was applied to the blot and then incubated for 1 min with a mixture of equal volumes from ECL solution A and ECL solution B. The chemiluminescent signals were captured using a CCD camera-based imager (Chemi Doc imager, Biorad, USA), and the bands intensities were then measured by Image J software program. […] For colorimetric assays two-way ANOVA test followed by Bonferroni posttest were used, while for quantification expression on western blot, student-t-test was used (significance p < 0.05). […]
(§2) Sodium dodecyl sulfate polyacrylamide gel electrophoresis (SDS-PAGE) is used to separate proteins based on their size. […] The secondary antibody is typically linked to an enzyme that produces luminescence upon the reaction with its substrate. […]

[2] = tested on: human hepatocellular carcinoma (HepG-2); assay: SRB cytotoxicity assay, HepG-2; type: cell-based; details: HepG2, HepG-2 cells
Protocol: (§3) The SRB colorimetric assay was employed to assess the synthesized compounds’ cytotoxic effects on several cancer cell lines (Table 1)[11–14]. […] Furthermore, the effect of tested compounds was evaluated on the normal immortalized HPDE cell line.
(§4) Sulforhodamine B (SRB) assay was employed to assay in-vitro antitumor activities of all the synthesised compounds as describer previously. […] The cell lines were obtained from the American Type Culture Collection (Rockville, USA).

[3] = tested on: mammary gland breast cancer (MCF-7); assay: SRB cytotoxicity assay, MCF-7; type: cell-based; details: Homo sapiens, MCF7, MCF-7 cells
Protocol: as §3, §4

[4] = tested on: DHFR; assay: Western blot of DHFR expression in MCF-7; type: cell-based, human
Protocol: as §1, §2

[5] = tested on: colorectal carcinoma (HCT-116); assay: SRB cytotoxicity assay, HCT-116; type: cell-based; details: Homo sapiens, HCT-116 cells
Protocol: as §3, §4

[6] = tested on: Bax; assay: Bax ELISA in MCF-7; type: cell-based, human; details: ½ IC50, IC50, 2×IC50, dose dependent
Protocol: The apoptotic effect of compound 7f on breast cancer cell line MCF-7 were evaluated by quantification of Bax, caspase 3/7, and Bcl-2 using Bax ELISA Kit ab199080 (ABCAM, Cambridge, UK), Caspase-Glo 3/7 assay kits (Promega, Fitchburg, MA, USA), and Bcl-2 ELISA Kit ab119506 (ABCAM, Cambridge, UK), according the instructions of manufacturers[11]^,[14]. The cells were treated with compounds 7f (½ IC50, IC50, or 2 ×IC50), and the activities were shown as a percentage change from the untreated control. The experiments were performed in triplicate applying two-way ANOVA test followed by Bonferroni posttest to evaluate the significance (p < 0.05).

[7] = biological target: T1, human DHFR enzyme (Homo sapiens, UniProt P00374); assay: Elisa assay of human DHFR enzyme; type: biochemical
T1 construct: purchased MyBioSource MBS9312476
T1 sequence (P00374 1-187): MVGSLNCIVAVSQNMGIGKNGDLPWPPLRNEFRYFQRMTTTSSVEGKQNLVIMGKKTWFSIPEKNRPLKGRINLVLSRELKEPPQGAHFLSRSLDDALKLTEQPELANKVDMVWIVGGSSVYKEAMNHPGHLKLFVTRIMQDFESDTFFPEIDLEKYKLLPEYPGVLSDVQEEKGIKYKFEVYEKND
Protocol: Enzyme-linked immunosorbent assay (ELISA) assay technique was used to evaluate the anti-DHFR effects of all the synthesised compounds on as described previously. The DHFR ELISA kit (MyBioSource, MBS9312476 San Diego, CA, USA) was used according to the manufacturer instructions. […] The test was repeated in triplicate, and the significance was assessed by one-way ANOVA test followed by Tukey’s posttest, where p < 0.05 was considered significance.

[8] = tested on: cervical carcinoma (HeLa); assay: SRB cytotoxicity assay, HeLa; type: cell-based; details: Homo sapiens, HeLa cells

N=C(N)NCCCC(NC(=O)c1ccc(Nc2ncnc3c2cnn3-c2ccccc2)cc1)C(=O)O (centres unmarked) [Compound 7f, 5-Guanidino-2-{4-[(1-phenyl-1H-pyrazolo[3,4-d]pyrimidin-4-yl)amino]benzamido}pentanoic acid]
western blotting OD Bax ([1]; MCF7 cells, Cont.MCF7 0.152): 0.346 OD | expression of Bax (western blot) ([1]; MCF-7): significantly increased the expression | IC50 [2]: 5.12 ± 0.01 µM | IC50 [3]: 4.65 ± 0.17 µM | western blotting OD DHFR ([4]; MCF7 cells, Cont.MCF7 0.808): 0.346 OD | DHFR expression (western blot) ([4]; MCF-7 cancer cell line): significantly diminished the DHFR expression | IC50 [5]: 5.48 ± 0.04 µM | release of Bax protein [6]: significantly surge the release | IC50 ([7]; DHFR ELISA kit, triplicate): < 1 µM and 0.31 µM | inhibition at 0.1 µM ([7]; conc 0.1 uM): 44% | inhibition at 1 µM ([7]; conc 1 uM): 66% | inhibition at 10 µM ([7]; conc 10 uM): 86% | inhibition at 100 µM ([7]; conc 100 uM): 94% | IC50 [8]: 6.99 ± 1.11 µM
